Laboratory results reported in the CheMixHub viscosity set.
± gives the uncertainty stated by the source.

Experiment: xn = mol fraction of the nth substance listed

COCCO + CCCCCCO
viscosity [mPa·s], 101 kPa
Conditions | x1 = 0.1298 | x1 = 0.2513 | x1 = 0.3653 | x1 = 0.4723 | x1 = 0.5731 | x1 = 0.6682 | x1 = 0.758 | x1 = 0.843 | x1 = 0.9236
298.15 K | 3.765 ± 0.38 | 3.225 ± 0.32 | 2.811 ± 0.28 | 2.458 ± 0.25 | 2.25 ± 0.23 | 2.076 ± 0.21 | 1.94 ± 0.19 | 1.815 ± 0.18 | 1.707 ± 0.17
308.15 K | 2.612 ± 0.26 | 2.233 ± 0.22 | 2.027 ± 0.2 | 1.815 ± 0.18 | 1.667 ± 0.17 | 1.487 ± 0.15 | 1.356 ± 0.14 | 1.303 ± 0.13 | 1.273 ± 0.13
318.15 K | 2.193 ± 0.22 | 1.908 ± 0.19 | 1.648 ± 0.17 | 1.477 ± 0.15 | 1.356 ± 0.14 | 1.278 ± 0.13 | 1.211 ± 0.12 | 1.129 ± 0.11 | 1.083 ± 0.11

CC(CC(C)(C)C)CC(C)(C)CC(C)(C)C (stereo not drawn) + C1CC[C@H]2CCCC[C@H]2C1
viscosity [mPa·s], 100 kPa
Conditions | x2 = 0.125 | x2 = 0.25 | x2 = 0.375 | x2 = 0.5 | x2 = 0.625 | x2 = 0.75 | x2 = 0.875
293.15 K | 3.68 ± 0.095 | 3.64 ± 0.094 | 3.559 ± 0.092 | 3.505 ± 0.09 | 3.456 ± 0.088 | 3.402 ± 0.087 | 3.377 ± 0.086
303.15 K | 2.919 ± 0.076 | 2.871 ± 0.075 | 2.83 ± 0.074 | 2.797 ± 0.073 | 2.765 ± 0.072 | 2.736 ± 0.07 | 2.713 ± 0.07
313.15 K | 2.364 ± 0.061 | 2.334 ± 0.06 | 2.303 ± 0.059 | 2.279 ± 0.058 | 2.259 ± 0.058 | 2.254 ± 0.057 | 2.228 ± 0.056
323.15 K | 1.961 ± 0.05 | 1.934 ± 0.049 | 1.911 ± 0.048 | 1.897 ± 0.048 | 1.884 ± 0.047 | 1.876 ± 0.047 | 1.87 ± 0.047

CC(O)=S + CC(C)=O
298.1 K, 101 kPa
Conditions | viscosity [mPa·s]
x1 = 0.2 | 0.405 ± 0.032
x1 = 0.4 | 0.479 ± 0.036
x1 = 0.5 | 0.511 ± 0.037
x1 = 0.6 | 0.551 ± 0.039
x1 = 0.8 | 0.624 ± 0.043

CCCC[N+](C)(CCCC)CCCC.N#C[N-]C#N + CC[n+]1ccn(C)c1.N#C[N-]C#N
Conditions | viscosity [mPa·s]
323.15 K, 101 kPa, x2 = 0.2114 | 42.05 ± 1.7

FC(F)(Cl)Cl + CC(F)F
101 kPa, x1 = 0.606
Conditions | viscosity [mPa·s]
295.47 K | 0.199 ± 0.0024
311.17 K | 0.1745 ± 0.0022

C[N+](C)(C)C[C@H](O)CC(=O)[O-] + NC(N)=O
Conditions | viscosity [mPa·s]
298.15 K, 101.33 kPa, x2 = 0.7 | 553

CC(=O)OC(C)C + c1ccccc1
308.15 K, 101 kPa
Conditions | viscosity [mPa·s]
x2 = 0.0634 | 0.4362 ± 0.0096
x2 = 0.2053 | 0.4409 ± 0.0097
x2 = 0.3085 | 0.4455 ± 0.0097
x2 = 0.4037 | 0.4502 ± 0.0098
x2 = 0.5044 | 0.4564 ± 0.0098
x2 = 0.6051 | 0.4587 ± 0.0099
x2 = 0.6985 | 0.4735 ± 0.01
x2 = 0.8005 | 0.4854 ± 0.01
x2 = 0.9366 | 0.502 ± 0.01

CCCC(=O)O + CCC(C)=O
viscosity [mPa·s], 101 kPa
Conditions | x2 = 0.1024 | x2 = 0.2043 | x2 = 0.3057 | x2 = 0.4065 | x2 = 0.5067 | x2 = 0.6064 | x2 = 0.7056 | x2 = 0.8043 | x2 = 0.9024
293.15 K | 1.383 ± 0.036 | 1.236 ± 0.032 | 1.1 ± 0.028 | 0.9737 ± 0.025 | 0.8582 ± 0.022 | 0.7526 ± 0.019 | 0.6569 ± 0.017 | 0.571 ± 0.015 | 0.4948 ± 0.013
303.15 K | 1.2 ± 0.031 | 1.078 ± 0.028 | 0.9646 ± 0.025 | 0.8589 ± 0.022 | 0.761 ± 0.02 | 0.6716 ± 0.017 | 0.5897 ± 0.015 | 0.515 ± 0.013 | 0.4485 ± 0.012
313.15 K | 1.021 ± 0.026 | 0.9263 ± 0.024 | 0.8368 ± 0.022 | 0.7525 ± 0.019 | 0.6733 ± 0.017 | 0.5989 ± 0.015 | 0.5293 ± 0.014 | 0.4645 ± 0.012 | 0.4044 ± 0.01

CCCCNCCCC + CCCCOCCO
viscosity [mPa·s], 100 kPa
Conditions | 298.15 K | 303.15 K | 308.15 K
x2 = 0.0501 | 0.94 ± 0.03 | 0.85 ± 0.03 | 0.8 ± 0.03
x2 = 0.1169 | 1.1 ± 0.03 | 1.01 ± 0.03 | 0.93 ± 0.03
x2 = 0.1502 | 1.19 ± 0.03 | 1.07 ± 0.03 | 1 ± 0.03
x2 = 0.2006 | 1.34 ± 0.03 | 1.17 ± 0.03 | 1.08 ± 0.03
x2 = 0.3001 | 1.58 ± 0.03 | 1.35 ± 0.03 | 1.25 ± 0.03
x2 = 0.4001 | 1.82 ± 0.03 | 1.55 ± 0.03 | 1.43 ± 0.03
x2 = 0.5 | 2.14 ± 0.03 | 1.83 ± 0.03 | 1.63 ± 0.03
x2 = 0.5999 | 2.42 ± 0.03 | 2.12 ± 0.03 | 1.84 ± 0.03
x2 = 0.6998 | 2.7 ± 0.03 | 2.33 ± 0.03 | 2.09 ± 0.03
x2 = 0.8 | 2.97 ± 0.03 | 2.5 ± 0.03 | 2.28 ± 0.03
x2 = 0.8965 | 3.1 ± 0.03 | 2.61 ± 0.03 | 2.38 ± 0.03
x2 = 0.95 | 2.97 ± 0.03 | 2.56 ± 0.03 | 2.32 ± 0.03

CCCCCCCBr + ClC(Cl)(Cl)Cl
viscosity [mPa·s], 101 kPa
Conditions | 293.15 K | 303.15 K | 313.15 K | 323.15 K
x1 = 0.123 | 1.015 ± 0.022 | 0.878 ± 0.019 | 0.769 ± 0.017 | 0.677 ± 0.015
x1 = 0.259 | 1.045 ± 0.023 | 0.905 ± 0.02 | 0.797 ± 0.017 | 0.705 ± 0.015
x1 = 0.412 | 1.09 ± 0.023 | 0.945 ± 0.02 | 0.832 ± 0.018 | 0.738 ± 0.016
x1 = 0.584 | 1.13 ± 0.024 | 0.982 ± 0.021 | 0.865 ± 0.019 | 0.767 ± 0.017

O=P([O-])(O)O.[Li+] + O
viscosity [mPa·s], 101 kPa
Conditions | x1 = 0.0018 | x1 = 0.0054 | x1 = 0.0089 | x1 = 0.012 | x1 = 0.016
298.15 K | 0.9076 ± 0.0079 | 1.021 ± 0.0091 | 1.099 ± 0.0099 | 1.209 ± 0.011 | 1.318 ± 0.011
303.15 K | 0.8338 ± 0.0075 | 0.9078 ± 0.0084 | 0.9891 ± 0.009 | 1.084 ± 0.01 | 1.211 ± 0.011
308.15 K | 0.7493 ± 0.0071 | 0.8183 ± 0.0076 | 0.888 ± 0.0083 | 0.9579 ± 0.0092 | 1.028 ± 0.011

CCCC(=O)O + C1CCOC1
298.15 K, 101 kPa
Conditions | viscosity [mPa·s]
x2 = 0.1195 | 1.45 ± 0.012
x2 = 0.234 | 1.43 ± 0.012
x2 = 0.3437 | 1.34 ± 0.011
x2 = 0.4489 | 1.212 ± 0.01
x2 = 0.5499 | 1.068 ± 0.0091
x2 = 0.647 | 0.9205 ± 0.0078
x2 = 0.7403 | 0.7856 ± 0.0067
x2 = 0.8301 | 0.6588 ± 0.0057
x2 = 0.9166 | 0.545 ± 0.0048

CC(=O)OC(C)C + Cc1cc(C)cc(C)c1
308.15 K, 101 kPa
Conditions | viscosity [mPa·s]
x2 = 0.09942 | 0.4428 ± 0.0098
x2 = 0.197 | 0.4556 ± 0.01
x2 = 0.3029 | 0.4738 ± 0.01
x2 = 0.3917 | 0.4812 ± 0.011
x2 = 0.4993 | 0.5032 ± 0.011
x2 = 0.5992 | 0.5127 ± 0.011
x2 = 0.6918 | 0.5289 ± 0.012
x2 = 0.7944 | 0.539 ± 0.012
x2 = 0.9024 | 0.5596 ± 0.013

CC(=O)OC(C)C + CCc1ccccc1
viscosity [mPa·s], 101 kPa
Conditions | x1 = 0.1056 | x1 = 0.2037 | x1 = 0.3116 | x1 = 0.4048 | x1 = 0.5112 | x1 = 0.6089 | x1 = 0.7156 | x1 = 0.811 | x1 = 0.9403
303.15 K | 0.582 ± 0.011 | 0.567 ± 0.011 | 0.551 ± 0.011 | 0.538 ± 0.011 | 0.523 ± 0.011 | 0.51 ± 0.011 | 0.496 ± 0.011 | 0.484 ± 0.011 | 0.467 ± 0.011
313.15 K | 0.523 ± 0.011 | 0.509 ± 0.011 | 0.494 ± 0.011 | 0.482 ± 0.011 | 0.469 ± 0.011 | 0.457 ± 0.011 | 0.445 ± 0.011 | 0.434 ± 0.011 | 0.42 ± 0.01
